As usually defined, the inhibition is the percentage by which the read-out fell short of the control. The IC50 is the concentration that inhibits the measured activity by half. Read a low IC50 as inhibition by little substance.

For series [1], the target named is T1, MAP kinase p38 (Homo sapiens, UniProt O15264+Q15759+Q16539+P53778). The series is described as follows: Inhibition of p38-related TNF-alpha release by PBMC cells at 10 e-4 to 10 e-8 M (no activity). The series is classed as functional, cell-based.
For series [2], the target named is T1, MAP kinase p38. The series is described as follows: Inhibition of p38-related IL1-beta release by PBMC cells at 10 e-4 to 10 e-8 M (no activity). The series is classed as functional, cell-based.
A further series addresses T2, CYP1A2 (Homo sapiens, UniProt P05177).
T2 sequence (P05177 whole entry): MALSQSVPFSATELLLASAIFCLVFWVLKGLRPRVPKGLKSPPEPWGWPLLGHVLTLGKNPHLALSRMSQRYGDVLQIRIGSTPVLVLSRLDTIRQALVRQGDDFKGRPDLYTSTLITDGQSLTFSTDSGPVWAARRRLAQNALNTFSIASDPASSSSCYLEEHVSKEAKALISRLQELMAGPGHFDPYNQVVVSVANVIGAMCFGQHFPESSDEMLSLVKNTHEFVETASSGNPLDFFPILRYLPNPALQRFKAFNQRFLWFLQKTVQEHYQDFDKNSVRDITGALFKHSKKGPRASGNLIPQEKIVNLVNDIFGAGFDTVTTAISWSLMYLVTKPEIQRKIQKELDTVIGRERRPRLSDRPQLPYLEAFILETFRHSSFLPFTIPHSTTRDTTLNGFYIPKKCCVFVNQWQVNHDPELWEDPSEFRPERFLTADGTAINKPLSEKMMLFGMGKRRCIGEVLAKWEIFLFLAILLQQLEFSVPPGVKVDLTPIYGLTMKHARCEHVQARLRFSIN
The series is described as follows: Inhibition of Cytochrome P450 1A2 at 10 uM. The series is classed as ADME.

The target of series [3] is T1, MAP kinase p38. The series is described as follows: Inhibitory activity against TNF-alpha release in PBM cells. The series is classed as functional, cell-based.
The target in series [4] is T1, MAP kinase p38. The series is described as follows: Inhibitory activity against induction of IL-1-beta release in PBMCs. The series is classed as functional.
The target in the next series is CYP2C9 (Homo sapiens, UniProt P11712). Briefly: Inhibition of Cytochrome P450 2C9 at 10 uM. The series is classed as ADME.
Series [5] deals with T1, MAP kinase p38. Briefly: Inhibition of p38-related TNF-alpha release by whole blood cells at 10 e-4 to 10 e-8 M. The series is classed as functional.
The target in a further series is CYP2C19 (Homo sapiens, UniProt P33261). Briefly: Inhibition of Cytochrome P450 2C19 at 10 uM. The series is classed as ADME.
Series [6] deals with T1, MAP kinase p38. The series is described as follows: Inhibitory activity against mitogen-activated protein kinase p38 at 10 e-4 to 10 e-8 M concentration. The series is classed as protein assay.
Another series deals with CYP2D6 (Homo sapiens, UniProt P10635). Briefly: Inhibition of Cytochrome P450 2D6 at 10 uM. The series is classed as ADME.
The target of series [7] is T1, MAP kinase p38. The series is described as follows: Inhibition of p38-related IL1-beta release by whole blood cells at 10 e-4 to 10 e-8 M. The series is classed as functional.
A further series has as its target CYP3A4 (Homo sapiens, UniProt P08684). The series is described as follows: Inhibition of Cytochrome P450 3A4 at 10 uM. The series is classed as ADME.

SMILES strings stand for the structures. Activity calls are given as the source filed them. The rule behind the calls is not given here. Some results are limits rather than exact numbers.

Chain of CYP2C19 (P33261 whole entry): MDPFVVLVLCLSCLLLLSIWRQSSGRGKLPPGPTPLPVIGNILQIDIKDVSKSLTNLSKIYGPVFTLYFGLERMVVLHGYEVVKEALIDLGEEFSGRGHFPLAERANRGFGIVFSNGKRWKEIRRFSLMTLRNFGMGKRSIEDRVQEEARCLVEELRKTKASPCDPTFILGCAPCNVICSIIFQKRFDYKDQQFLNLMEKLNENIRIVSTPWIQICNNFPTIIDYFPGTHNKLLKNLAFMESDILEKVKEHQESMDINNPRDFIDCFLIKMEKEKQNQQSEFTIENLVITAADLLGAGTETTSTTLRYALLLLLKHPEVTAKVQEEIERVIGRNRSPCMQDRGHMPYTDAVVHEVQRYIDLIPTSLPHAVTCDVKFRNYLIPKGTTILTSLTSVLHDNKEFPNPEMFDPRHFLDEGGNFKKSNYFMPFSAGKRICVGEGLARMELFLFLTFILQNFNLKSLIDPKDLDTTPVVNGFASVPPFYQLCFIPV
Chain of CYP2D6 (P10635 whole entry): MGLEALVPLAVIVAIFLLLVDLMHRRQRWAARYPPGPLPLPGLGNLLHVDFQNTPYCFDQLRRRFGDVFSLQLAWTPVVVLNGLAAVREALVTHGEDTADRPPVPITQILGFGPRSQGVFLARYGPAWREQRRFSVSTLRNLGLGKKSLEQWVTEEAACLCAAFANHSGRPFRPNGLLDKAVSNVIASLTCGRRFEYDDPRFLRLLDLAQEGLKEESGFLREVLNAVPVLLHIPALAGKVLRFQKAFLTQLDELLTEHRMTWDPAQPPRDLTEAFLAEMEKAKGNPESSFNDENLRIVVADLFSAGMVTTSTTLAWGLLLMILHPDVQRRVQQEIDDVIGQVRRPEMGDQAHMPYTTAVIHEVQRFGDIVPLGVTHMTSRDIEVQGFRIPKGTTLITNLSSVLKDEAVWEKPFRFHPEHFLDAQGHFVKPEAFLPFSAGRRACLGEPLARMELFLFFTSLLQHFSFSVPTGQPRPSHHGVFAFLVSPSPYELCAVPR
Chain of CYP3A4 (P08684 whole entry): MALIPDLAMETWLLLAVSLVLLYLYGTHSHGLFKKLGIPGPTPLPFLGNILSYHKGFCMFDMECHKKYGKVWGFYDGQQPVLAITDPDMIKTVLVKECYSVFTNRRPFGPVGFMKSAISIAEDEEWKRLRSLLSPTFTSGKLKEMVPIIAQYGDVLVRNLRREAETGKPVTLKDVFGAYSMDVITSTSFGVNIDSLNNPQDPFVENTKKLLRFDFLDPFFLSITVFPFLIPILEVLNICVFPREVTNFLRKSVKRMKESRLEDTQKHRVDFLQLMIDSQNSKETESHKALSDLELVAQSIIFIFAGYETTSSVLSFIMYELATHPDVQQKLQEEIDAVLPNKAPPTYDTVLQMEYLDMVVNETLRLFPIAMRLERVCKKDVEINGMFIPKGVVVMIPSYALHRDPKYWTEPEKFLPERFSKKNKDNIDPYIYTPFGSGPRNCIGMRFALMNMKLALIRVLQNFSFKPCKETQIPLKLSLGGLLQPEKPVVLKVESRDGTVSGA
Chain of CYP2C9 (P11712 whole entry): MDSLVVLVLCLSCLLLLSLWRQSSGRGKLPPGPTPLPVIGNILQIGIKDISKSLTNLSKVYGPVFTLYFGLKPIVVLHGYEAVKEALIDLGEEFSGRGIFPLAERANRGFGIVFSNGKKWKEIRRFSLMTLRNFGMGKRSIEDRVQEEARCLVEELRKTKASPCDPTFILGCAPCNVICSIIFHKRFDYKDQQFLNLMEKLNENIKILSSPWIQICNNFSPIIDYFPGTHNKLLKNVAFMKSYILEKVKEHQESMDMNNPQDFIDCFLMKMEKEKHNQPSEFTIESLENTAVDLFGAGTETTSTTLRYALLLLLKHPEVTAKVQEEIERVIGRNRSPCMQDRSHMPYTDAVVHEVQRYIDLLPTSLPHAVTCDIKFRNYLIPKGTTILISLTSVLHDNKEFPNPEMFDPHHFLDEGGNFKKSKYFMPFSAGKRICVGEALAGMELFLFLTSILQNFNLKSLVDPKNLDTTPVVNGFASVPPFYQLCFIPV

With `CSc1nc(-c2ccc(F)cc2)c(-c2ccnc(N(Cc3ccccc3)Cc3ccccc3)c2)n1C`, the NA result on MAP kinase p38 [1] and on MAP kinase p38 [2] was “inactive” in each case.
For the molecule `CSc1nc(-c2ccc(F)cc2)c(-c2ccnc(NC(C)=O)c2)n1C1CC(C)(C)NC(C)(C)C1`, the inhibition at 10 µM is below 0% on CYP1A2; 2.6% on CYP2C9; 7.6% against CYP2C19; 14.6% against CYP2D6; 79% against CYP3A4. Besides, the half-inhibitory concentration (IC50) on MAP kinase p38 [3] stood at 4500 nM; on MAP kinase p38 [4] it was 460 nM; against MAP kinase p38 [5] it was 5400 nM; on MAP kinase p38 [6], 340 nM; against MAP kinase p38 [7], 2150 nM.
On to `CSc1nc(-c2ccc(F)cc2)c(-c2ccnc(NC(C)c3ccccc3)c2)n1C` (configuration not stated), for which the inhibition at 10 µM at CYP1A2 worked out at 57.1%; at CYP2C9 it was 83.3%; at CYP2C19, 90.9%; at CYP2D6, 12.4%; against CYP3A4, 85.8%. Also, the concentration for half-maximal inhibition (IC50) worked out at 110 nM against MAP kinase p38 [3]; 15 nM against MAP kinase p38 [4]; 3000 nM at MAP kinase p38 [5]; 220 nM on MAP kinase p38 [6]; 4100 nM against MAP kinase p38 [7].
With `CSc1nc(-c2ccc(F)cc2)c(-c2ccncc2)n1C1CC(C)(C)NC(C)(C)C1`, the inhibition at 10 µM at CYP1A2 was 9%; at CYP2C9, 7.9%; at CYP2C19 it was 15.3%; against CYP2D6, 19.1%; against CYP3A4, 49.6%. Besides, the half-maximal inhibitory concentration (IC50) worked out at 16000 nM on MAP kinase p38 [3]; 850 nM on MAP kinase p38 [4]; 19100 nM at MAP kinase p38 [5]; 17000 nM on MAP kinase p38 [6]; 18500 nM against MAP kinase p38 [7].
With `CSc1nc(-c2ccc(F)cc2)c(-c2ccnc(OC(C)C)c2)[nH]1`, the inhibition at 10 µM against CYP1A2 is 83.2%; against CYP2C9, 67.5%; at CYP2C19, 62.6%; at CYP2D6, below 0%; against CYP3A4, 49.6%. Moreover, the half-maximal inhibitory concentration (IC50) is 400 nM at MAP kinase p38 [3]; 47 nM on MAP kinase p38 [4]; 7200 nM on MAP kinase p38 [5]; 560 nM at MAP kinase p38 [6]; 2200 nM at MAP kinase p38 [7].
